Laboratory results from patent publication US20240050432A1 (Infinity Pharmaceuticals, Inc., priority 2020, published 2024).
Like-named read-outs stand apart in the source and are kept apart here.

Columns and labels:
Type in all cases: in vivo, human
[1] = Eganelisib exposures (Cmax, AUC0-24 hrs) with combination therapies, 3 clinical studies; conditions: for observed highest individual concentration value: PK cutoff June-July 2020; for Cmax / AUC(0-t): human, in vivo
PD-L1 = assay: Paired tumor biopsies in TNBC phase II study: PD-L1 expression; conditions: 11 paired tumor biopsies; triplet regimen
[2] = Hepatic TEAEs by eganelisib dose in combination with nivolumab (phase 1 Part C, phase 2)
[3] = 30 mg QD, C1D1, model-predicted
[4] = 30 mg QD, C2D1, model-predicted
[5] = 40 mg QD, C1D1, model-predicted
[6] = 40 mg QD, C2D1, model-predicted

For C[C@H](NC(=O)c1c(N)nn2cccnc12)c1cc2cccc(C#Cc3cnn(C)c3)c2c(=O)n1-c1ccccc1 [Compound 1, eganelisib], the “Cmax, Max” value [1, 3] was 1750 ng/mL, the “Cmax, Min” value [1, 3] was 637 ng/mL and the “Cmax, Max” value [1, 4] was 4070 ng/mL. For the same molecule, the “Cmax, Min” value [1, 4] was 684 ng/mL, the “observed highest individual concentration value” ([1]; 30 mg QD, across all 3 studies) was 4.42 µg/mL and the “Cmax, Max” value [1, 5] was 3630 ng/mL. For the same molecule, the “Cmax, Min” value [1, 5] was 346 ng/mL, the “Cmax, Max” value [1, 6] was 8830 ng/mL and the “Cmax, Min” value [1, 6] was 480 ng/mL. The “observed highest individual concentration value” ([1]; 40 mg QD, across all 3 studies) was 11.4 µg/mL, the “observed highest individual concentration lower for 30 mg QD versus 40 mg QD” value ([1]; across all 3 studies) was 61% and the Cmax ([1]; 30 mg QD, C1D1, model-predicted, read-out: Cmax, Mean) was 1020 ng/mL. For the same molecule, the Cmax ([1]; 30 mg QD, C1D1, model-predicted, read-out: Cmax, Median) was 978 ng/mL, the AUC(0-t) ([1]; 30 mg QD, C2D1, model-predicted, read-out: AUC0-24 hrs, GeoMean) was 29200 ng·h/mL and the AUC(0-t) ([1]; 30 mg QD, C2D1, model-predicted, read-out: AUC0-24 hrs, Mean) was 33600 ng·h/mL. For the same molecule, the AUC(0-t) ([1]; 30 mg QD, C2D1, model-predicted, read-out: AUC0-24 hrs, Median) was 25800 ng·h/mL, the Cmax ([1]; 30 mg QD, C2D1, model-predicted, read-out: Cmax, GeoMean) was 1680 ng/mL and the Cmax ([1]; 30 mg QD, C2D1, model-predicted, read-out: Cmax, Median) was 1530 ng/mL. The AUC(0-t) ([1]; 40 mg, 40 mg QD, C1D1, model-predicted, read-out: AUC0-24 hrs, GeoMean) was 26200 ng·h/mL, the AUC(0-t) ([1]; 40 mg, 40 mg QD, C1D1, model-predicted, read-out: AUC0-24 hrs, Mean) was 28400 ng·h/mL and the AUC(0-t) ([1]; 40 mg, 40 mg QD, C1D1, model-predicted, read-out: AUC0-24 hrs, Median) was 26000 ng·h/mL. The Cmax ([1]; 40 mg, 40 mg QD, C1D1, model-predicted, read-out: Cmax, GeoMean) was 1550 ng/mL, the Cmax ([1]; 40 mg, 40 mg QD, C1D1, model-predicted, read-out: Cmax, Mean) was 1650 ng/mL and the Cmax ([1]; 40 mg, 40 mg QD, C1D1, model-predicted, read-out: Cmax, Median) was 1560 ng/mL. For the same molecule, the AUC(0-t) ([1]; 40 mg, 40 mg QD, C2D1, model-predicted, read-out: AUC0-24 hrs, GeoMean) was 42100 ng·h/mL, the AUC(0-t) ([1]; 40 mg, 40 mg QD, C2D1, model-predicted, read-out: AUC0-24 hrs, Mean) was 49600 ng·h/mL and the AUC(0-t) ([1]; 40 mg, 40 mg QD, C2D1, model-predicted, read-out: AUC0-24 hrs, Median) was 41400 ng·h/mL. The Cmax ([1]; 40 mg, 40 mg QD, C2D1, model-predicted, read-out: Cmax, GeoMean) was 2470 ng/mL, the Cmax ([1]; 40 mg, 40 mg QD, C2D1, model-predicted, read-out: Cmax, Mean) was 2770 ng/mL and the Cmax ([1]; 40 mg, 40 mg QD, C2D1, model-predicted, read-out: Cmax, Median) was 2420 ng/mL. For the same molecule, the AUC(0-t) ([1]; oral, 30 mg QD, C1D1, model-predicted, read-out: AUC0-24 hrs, GeoMean) was 16100 ng·h/mL, the AUC(0-t) ([1]; oral, 30 mg QD, C1D1, model-predicted, read-out: AUC0-24 hrs, Mean) was 16700 ng·h/mL and the AUC(0-t) ([1]; oral, 30 mg QD, C1D1, model-predicted, read-out: AUC0-24 hrs, Median) was 15900 ng·h/mL. The Cmax ([1]; oral, 30 mg QD, C1D1, model-predicted, read-out: Cmax, GeoMean) was 993 ng/mL, the Cmax ([1]; oral, 30 mg QD, C2D1, model-predicted, read-out: Cmax, Mean) was 1860 ng/mL and the “change of PD-L1 status/expression in paired tumor biopsies” value (PD-L1) was “on-mechanism conversion of patients from PD-L1(−) to PD-L1(+) and increase in PD-L1 expression in PD-L1(+) patients”. For the same molecule, the “subjects with Grade 3 hepatic TEAE” value ([2]; eganelisib 30 mg QD with nivolumab 480 mg Q4W) was less than 20% and the “subjects with Hepatic TEAEs” value ([2]; eganelisib 40 mg QD with nivolumab 480 mg Q4W) was greater than 20%.
